The conditions of the series: for phase-transformed into gamma-glycine: after 24 hours.

Where two headings read alike, the source gives them in different places.

With `NCC(=O)O` [alpha-glycine, glycine], the phase-transformed into gamma-glycine reads like this: (100 g glass beads 1.7 to 2.0 mm, 300 g group 1, 500 rpm) 100%; (zirconia beads 5.0 to 7.0 mm, 300 g group 1, 100 rpm) 0%. Further, the “gamma-glycine (stable phase crystal) obtained” value (glass beads 1.7 to 2.0 mm, about 100 to 200 g, 300 rpm, stirred/ground 24-48 hours, groups 1 to 6) was determined as 100%. The “time after which supersaturation of stable phase crystals (gamma-glycine) increased” value (magnetic bar in propeller stirring device, 300 rpm) is on record as “about 1,500 minutes”. Where the note is “magnetic bar stirred/ground at 300 rpm for about 65 hours or more (6,800 minutes)”, the “stable phase crystals obtained” value stood at 100%. For the setting “simple propeller stirrer, no physical grinding, 300 g, 300 rpm, about 15 days, groups 1 to 6 of Table 1”, the “stable phase crystal (gamma-glycine) precipitation rate” value was 0%. Further, under “zirconia beads 5.0 to 7.0 mm, 100 rpm, 24 hours plus further 48 hours stirring”, the “phase transformation from alpha-glycine to gamma-glycine” value is listed as 100%.

For the origin of these results see patent US12350782B2, “Method for producing stable-phase crystals using physical grinding” (University-Industry Cooperation Group of Kyung Hee …, priority 2021, dated 2025).
